Like-named read-outs stand apart in the source and are kept apart here.

This assay has as its target T1, human orexin type 2 receptor (hOX2R) (Homo sapiens, UniProt O43614).
T1 construct: expressed in transfected cells
T1 sequence (O43614 1-444): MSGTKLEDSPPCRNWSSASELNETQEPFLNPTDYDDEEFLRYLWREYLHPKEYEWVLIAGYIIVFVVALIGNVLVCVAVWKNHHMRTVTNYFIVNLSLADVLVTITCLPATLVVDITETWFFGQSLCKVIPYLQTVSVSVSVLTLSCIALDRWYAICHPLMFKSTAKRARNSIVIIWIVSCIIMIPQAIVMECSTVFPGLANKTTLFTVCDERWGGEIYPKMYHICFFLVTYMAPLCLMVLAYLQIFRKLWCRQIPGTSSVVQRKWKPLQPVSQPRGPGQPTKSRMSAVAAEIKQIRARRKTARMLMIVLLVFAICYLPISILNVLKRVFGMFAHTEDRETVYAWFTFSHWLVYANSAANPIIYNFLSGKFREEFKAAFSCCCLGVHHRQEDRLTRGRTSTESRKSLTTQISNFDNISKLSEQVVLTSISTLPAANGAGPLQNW
Nature of the assay: Measurement of orexin type 2 receptor agonist activity (FLIPR calcium fluorescence). The settings on record: for Emax: CHO, read-out: hOx2 Emax (%). Type of assay: cell-based. In outline:
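Agonism was read as fluorescence in cells stably expressing human OX2R. E. is the response at 10 μM relative to orexin A as full agonist (100%).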

Where [1] appears, read: CHO cells expressing hOX2R, FLIPR calcium fluorescence, read-out: hOx2 pEC50 (converted).
The mark [2] stands for this setting: CHO cells expressing hOX2R, FLIPR calcium fluorescence.

A word on the Emax: it is the size of the effect at its maximum, as opposed to the concentration needed. As for `CCS(=O)(=O)N[C@@H]1[C@H](Cc2cccc(-c3ccccc3)c2)N(C(=O)[C@H]2CCO2)CC12CC2` [Compound 41], the EC50 under setting [1] was 1 to 10 nM. In addition, the Emax under setting [2] fell in the range of 90 to 100%. The corresponding values for `O=C([C@H]1CCO1)N1CC2(CC2)[C@H](NS(=O)(=O)C2CC2)[C@@H]1Cc1cccc(-c2ccccc2)c1` [Compound 42, N-((6S,7S)-6-([1,1′-biphenyl]-3-ylmethyl)-5-((R)-oxetane-2-carbonyl)-5-azaspiro[2.4]heptan-7-yl)cyclopropanesulfonamide] are 1 to 10 nM and 90 to 100%. For the compound `CS(=O)(=O)N[C@@H]1[C@H](Cc2cccc(-c3ccccc3)c2)N(C(=O)[C@H](O)C(F)(F)F)CC12CC2` [Compound 43, N-((6S,7S)-6-([1,1′-biphenyl]-3-ylmethyl)-5-((S)-3,3,3-trifluoro-2-hydroxypropanoyl)-5-azaspiro[2.4]heptan-7-yl)methanesulfonamide], the “hOx2 Emax (%)” value under setting [2] was “A (Emax ranging between 90 and 100)”. The EC50 under setting [1] was 1 to 10 nM. Regarding `CS(=O)(=O)N[C@@H]1[C@H](Cc2cccc(-c3ccccc3)c2)N(C(=O)C2(C#N)CCO2)CC12CC2` (stereo partly drawn) [Compound 47, N-((6S,7S)-6-([1,1′-biphenyl]-3-ylmethyl)-5-(2-cyanooxetane-2-carbonyl)-5-azaspiro[2.4]heptan-7-yl)methanesulfonamide], the EC50 under setting [1] is 10 to 100 nM. Also, the Emax under setting [2] fell in the range of 90 to 100%. As for `O=C([C@H]1CCO1)N1CC2(CC2)[C@H](NS(=O)(=O)CF)[C@@H]1Cc1cccc(-c2ccccc2)c1` [Compound 48, N-((6S,7S)-6-([1,1′-biphenyl]-3-ylmethyl)-5-((R)-oxetane-2-carbonyl)-5-azaspiro[2.4]heptan-7-yl)-1-fluoromethanesulfonamide], the Emax under setting [2] is 80 to 90%.

Consider `CCS(=O)(=O)N[C@@H]1[C@H](Cc2cccc(-c3ccccc3)c2F)N(C(=O)[C@H]2CCO2)CC12CC2` [Compound 53, N-((6S,7S)-6-((2-fluoro-[1,1′-biphenyl]-3-yl)methyl)-5-((R)-oxetane-2-carbonyl)-5-azaspiro[2.4]heptan-7-yl)ethanesulfonamide], for which the EC50 under setting [1] was 1 to 10 nM. For the same compound, the maximal effect (Emax) under setting [2] was 90 to 100%. Regarding `CCNC(=O)N1CC2(CC2)[C@H](NS(C)(=O)=O)[C@@H]1Cc1cccc(-c2ccccc2)c1OC` [Compound 54, (6S,7S)—N-ethyl-6-((2-methoxy-[1,1′-biphenyl]-3-yl)methyl)-7-(methylsulfonamido)-5-azaspiro[2.4]heptane-5-carboxamide], the Emax was 80 to 90%. In addition, the EC50 (hOx2 pEC50, CHO cells expressing hOX2R, FLIPR calcium fluorescence) is 1 to 10 nM.

Regarding `CS(=O)(=O)N[C@@H]1[C@H](Cc2cccc(-c3ccccc3)c2)N(C(=O)[C@H]2CCO2)CC12CC2` [Compound 55, N-((6S,7S)-6-([1,1′-biphenyl]-3-ylmethyl)-5-((R)-oxetane-2-carbonyl)-5-azaspiro[2.4]heptan-7-yl)methanesulfonamide], the EC50 under setting [1] was 10 to 100 nM. In addition, the Emax under setting [2] was in the range of 90 to 100%. On the same counts, the results for `CS(=O)(=O)N[C@@H]1[C@H](Cc2cccc(-c3ccccc3)c2F)N(C(=O)[C@H](O)C(F)(F)F)CC12CC2` [Compound 56, N-((6S,7S)-6-((2-fluoro-[1,1′-biphenyl]-3-yl)methyl)-5-((S)-3,3,3-trifluoro-2-hydroxypropanoyl)-5-azaspiro[2.4]heptan-7-yl)methanesulfonamide] are 1 to 10 nM and 90 to 100%. In the case of `CCS(=O)(=O)N[C@@H]1[C@H](Cc2cccc(-c3ccccc3)c2)N(C(=O)[C@H](O)C(F)(F)F)CC12CC2` [Compound 58, N-((6S,7S)-6-([1,1′-biphenyl]-3-ylmethyl)-5-((S)-3,3,3-trifluoro-2-hydroxypropanoyl)-5-azaspiro[2.4]heptan-7-yl)ethanesulfonamide], the EC50 under setting [1] is 1 to 10 nM. The Emax under setting [2] was in the range of 90 to 100%.

On to `CS(=O)(=O)N[C@@H]1[C@H](Cc2cc(F)cc(-c3ccccc3)c2F)N(C(=O)[C@H]2CCO2)CC12CC2` [Compound 59, N-((6S,7S)-6-((2,5-difluoro-[1,1′-biphenyl]-3-yl)methyl)-5-((R)-oxetane-2-carbonyl)-5-azaspiro[2.4]heptan-7-yl)methanesulfonamide], for which the EC50 under setting [1] is 1 to 10 nM. The Emax under setting [2] fell in the range of 90 to 100%.

Regarding `COC1(C(=O)N2CC3(CC3)[C@H](NS(C)(=O)=O)[C@@H]2Cc2cccc(-c3ccccc3)c2)CC1` [Compound 60, N-((6S,7S)-6-([1,1′-biphenyl]-3-ylmethyl)-5-(1-methoxycyclopropane-1-carbonyl)-5-azaspiro[2.4]heptan-7-yl)methanesulfonamide], under setting [1], the EC50 was 10 to 100 nM. Besides, the Emax under setting [2] lay in the range of 80 to 90%. On the same counts, the results for `CS(=O)(=O)N[C@@H]1[C@H](Cc2cccc(-c3ccccc3)c2)N(C(=O)[C@H](O)C2CC2)CC12CC2` [Compound 61, N-((6S,7S)-6-([1,1′-biphenyl]-3-ylmethyl)-5-((R)-2-cyclopropyl-2-hydroxyacetyl)-5-azaspiro[2.4]heptan-7-yl)methanesulfonamide] are 1 to 10 nM and 90 to 100%. On the same counts, the results for `CS(=O)(=O)N[C@@H]1[C@H](Cc2cccc(-c3ccccc3)c2)N(C(=O)[C@H](O)CF)CC12CC2` [Compound 62, N-((6S,7S)-6-([1,1′-biphenyl]-3-ylmethyl)-5-((S)-3-fluoro-2-hydroxypropanoyl)-5-azaspiro[2.4]heptan-7-yl)methanesulfonamide] are 10 to 100 nM and 90 to 100%.

As for `COC[C@@H](O)C(=O)N1CC2(CC2)[C@H](NS(C)(=O)=O)[C@@H]1Cc1cccc(-c2ccccc2)c1` [Compound 63, N-((6S,7S)-6-([1,1′-biphenyl]-3-ylmethyl)-5-((R)-2-hydroxy-3-methoxypropanoyl)-5-azaspiro[2.4]heptan-7-yl)methanesulfonamide], the EC50 under setting [1] was 10 to 100 nM. Moreover, the Emax under setting [2] fell in the range of 80 to 90%.

For the compound `CN(C)S(=O)(=O)N[C@@H]1[C@H](Cc2cccc(-c3ccccc3)c2F)N(C(=O)[C@H]2CCO2)CC12CC2` [Compound 64, N-((6S,7S)-6-((2-fluoro-[1,1′-biphenyl]-3-yl)methyl)-5-((R)-oxetane-2-carbonyl)-5-azaspiro[2.4]heptan-7-yl)-N,N-dimethylsulfuric diamide], under setting [1], the EC50 was 0.0794 to 1 nM. For the same compound, the maximal effect (Emax) under setting [2] lay within 90 to 100%. As to `CNS(=O)(=O)N[C@@H]1[C@H](Cc2cccc(-c3ccccc3)c2F)N(C(=O)[C@H]2CCO2)CC12CC2` [Compound 65, N-((6S,7S)-6-((2-fluoro-[1,1′-biphenyl]-3-yl)methyl)-5-((R)-oxetane-2-carbonyl)-5-azaspiro[2.4]heptan-7-yl)-N-methylsulfuric diamide], the EC50 under setting [1] was 1 to 10 nM. Further, under setting [2], the maximum response (Emax) was 90 to 100%. The corresponding values for `CS(=O)(=O)N[C@@H]1[C@H](Cc2cccc(-c3cccc(F)c3)c2F)N(C(=O)[C@H]2CCO2)CC12CC2` [Compound 67, N-((6S,7S)-6-((2,3′-difluoro-[1,1′-biphenyl]-3-yl)methyl)-5-((R)-oxetane-2-carbonyl)-5-azaspiro[2.4]heptan-7-yl)methanesulfonamide] are 1 to 10 nM and 90 to 100%. The corresponding values for `CS(=O)(=O)N[C@@H]1[C@H](Cc2cccc(-c3ccccc3)c2F)N(C(=O)C2(O)CCC2)CC12CC2` [Compound 68, N-((6S,7S)-6-((2-fluoro-[1,1′-biphenyl]-3-yl)methyl)-5-(1-hydroxycyclobutane-1-carbonyl)-5-azaspiro[2.4]heptan-7-yl)methanesulfonamide] are 0.0794 to 1 nM and 90 to 100%. The corresponding values for `O=C([C@H]1CCO1)N1CC2(CC2)[C@H](NS(=O)(=O)C2CC2)[C@@H]1Cc1cccc(-c2ccccc2)c1F` [Compound 69, N-((6S 7S)-6-((2-fluoro-[1,1′-biphenyl]-3-yl)methyl)-5-((R)-oxetane-2-carbonyl)-5-azaspiro[2.4]heptan-7-yl)cyclopropanesulfonamide] are 0.0794 to 1 nM and 90 to 100%. Turning to `CS(=O)(=O)N[C@@H]1[C@H](Cc2cccc(-c3ccccc3)c2)N(C(=O)[C@H](O)C(F)F)CC12CC2` [Compound 70, N-((6S,7S)-6-([1,1′-biphenyl]-3-ylmethyl)-5-((S)-3,3-difluoro-2-hydroxypropanoyl)-5-azaspiro[2.4]heptan-7-yl)methanesulfonamide], the EC50 under setting [1] is 1 to 10 nM. Moreover, the Emax under setting [2] lay in the range of 90 to 100%. On the same counts, the results for `CNS(=O)(=O)N[C@@H]1[C@H](Cc2cccc(-c3ccccc3)c2)N(C(=O)[C@H]2CCO2)CC12CC2` [Compound 71] are 1 to 10 nM and 90 to 100%. On the same counts, the results for `Cn1ccc(S(=O)(=O)N[C@@H]2[C@H](Cc3cccc(-c4ccccc4)c3)N(C(=O)[C@H]3CCO3)CC23CC3)n1` [Compound 72, N-((6S,7S)-6-([1,1′-biphenyl]-3-ylmethyl)-5-((R)-oxetane-2-carbonyl)-5-azaspiro[2.4]heptan-7-yl)-1-methyl-1H-pyrazole-3-sulfonamide] are 1 to 10 nM and 90 to 100%. Turning to `N#CCS(=O)(=O)N[C@@H]1[C@H](Cc2cccc(-c3ccccc3)c2)N(C(=O)[C@H]2CCO2)CC12CC2` [Compound 73], the EC50 under setting [1] is 10 to 100 nM. The Emax under setting [2] was 90 to 100%.

These data come from patent US12503475B2 (Centessa Pharmaceuticals (UK) Limited, priority 2020, dated 2025).
